# B1: IGFBP-2: Insulin-like growth factor binding protein-2, 36,000 dalton protein, purified from cellular conditioned medium (protein, UniProt P18065 36-325, looked up)
# Insulin-like growth …: AEVLFRCPPCTPERLAACGPPPVAPPAAVAAVAGGARMPCAELVREPGCGCCSVCARLEGEACGVYTPRCGQGLRCYPHPGSELPLQALVMGEGTCEKRRDAEYGASPEQVADNGDDHSEGGLVENHVDSTMNMLGGGGSAGRKPLKSGMKELAVFREKVTEQHRQMGKGGKHHLGLEEPKKLRPPPARTPCQQELDQVLERISTMRLPDERGPLEHLYSLHIPNCDKHGLYNLKQCKMSLNGQRGECWCVNPNTGKLIQGAPTIRGDPECHLFYNEQQEARGVHTQRMQ
# Columns and labels:
# mouse metatarsal bones = assay: Ex vivo metatarsal explant bone growth and mineralization; type: cell-based; settings: for bone growth and calcification: metatarsals derived from IGFBP-2−/− mice, 20-200 ng/ml
# From the text: This system uses an ex vivo explant system, therefore it is a transition between cultured cells and in vivo experiments. The bone forming tissue is removed directly from a mouse and then grown in organ culture for several days. The test additives can be added directly to the medium at any concentration in order to test for biological activity. The method is as follows: mouse metatarsal bones were isolated from newborn mice between days 0 and 3 after birth using the dissecting microscope. The middle three metatarsals were used for all experiments. Three metatarsals were incubated per well in a 24 well tissue culture dish in DMEM containing 0.5% bovine serum, […], 1 mM beta glycerol phosphate at 37° C. The medium was replaced one day later and the metatarsals are cultured for up to 10 days. Growth was measured by quantitative increase in size, both length and width of the bones using an inverted phase microscope with a built in micrometer scaling bar for measurements. Mineralization was assessed by the addition of calcein (500 ng/ml) to the medium for 2 hrs prior to tissue fixation. Fluorescent images were captured using a digital camera attached to an inverted microscope and quantifying calcein fluorescence under the appropriate […] stimulus. Bone and cartilage histology were measured by fixing the bones in 4% PFA overnight and storing at 70% ethanol, followed by […] embedding sectioning and staining. Sections were stained with H&E, Alizaran red or alkaline phosphatase. For analysis of proteins, the tissue was homogenized in Laemmli sample buffer and gels were run using standard SDS polyacrylamide gel electrophoresis and western blotting.
# PTEN = assay: Western blot analysis of PTEN expression; type: cell-based, mouse; settings: for PTEN concentrations: aortic smooth muscle and bone cells from IGFBP-2 gene deleted mice, exogenous addition
# Procedure: FIG. 5. The heparin-binding domain of IGFBP2 suppresses PTEN expression. a and b, Igfbp2^−/− calvarial osteoblasts (COBs) were isolated, and treated with PBS, IGFBP-2 or pegylated heparin-binding domain peptide (PEG-HBD) in MEMα containing 0.1% BSA overnight. Whole cell lysate was collected and expression of PTEN and α-actin was analyzed by Western blot analysis. Expression levels of PTEN were quantified by normalizing to the expression levels of α-actin. c and d. COBs pre-incubated with PBS, IGFBP-2 or PEG-HBD overnight were treated with IGF-I (100 ng/ml) for 15 minutes. Whole cell lysate was collected and expression of pSer473-Akt and Akt was analyzed by Western blot analysis. Expression levels of pSer473-Akt were quantified by normalizing to the expression levels of Akt. Figures shown represent at least 3 independent experiments. Values are expressed as the mean±SEM (n=3-4). Statistical difference was analyzed by Student's t-test. *; <0.001, **; <0.01, ^†; <0.05.
# FIG. 9. […] Igfbp2^+/+ calvarial osteoblasts were treated with PBS, control peptide, or heparin-binding domain peptide (HBD-peptide) overnight, and whole cell lysate was collected. PTEN expression was analyzed using western blot analysis (a), and quantitative analysis was performed (b). Values were expressed as the mean±SEM (n=3). Statistical significance was analyzed by ANOVA followed by Bonferroni post-hoc test. ^a; p<0.01 vs. PBS, ^b; p<0.01 vs. control peptide.
# To prepare whole cell lysates, cells were solubilized in RIPA buffer^55. For cytosolic fraction, cells were solubilized with hypotonic buffer containing protease and phosphatase inhibitors (10 mM Tris, 0.2 mM MgCl2, pH 7.4) and kept on ice for 10 min. Cell lysates were mixed with sucrose buffer (final concentration; 25 mM Sucrose, 0.1 mM EDTA) and centrifuged at 20,000×g for 1 hour. Supernatant was used as cytosolic fraction. To prepare the membrane fraction, cells were solubilized with PBS containing protease and phosphatase inhibitors. The lysates were frozen at −80° C. for 1 h and thawed at room temperature. After three cycles, they were centrifuged at 13,000×g for 25 min. The pellet was suspended with membrane protein isolation buffer (20 mM Tris-HCl; 150 mM NaCl; 1 mM EDTA; 1 mM EGTA; and 1% Triton X-100, pH 7.5) containing protease and phosphatase inhibitors. Protein concentration was assessed by BCA protein assay kit (Thermo Scientific) and equal amounts of sample were separated by SDS-PAGE and transferred electrophoretically to nitrocellulose membranes. Membranes were blocked in 5% BSA in Tris-buffered saline. […]
# 3T3L1 = assay: Fat cell differentiation of 3T3L1 cells, oil red O staining; type: cell-based
# Procedure: In some assays, fat cell data were obtained by using the cell line 3T3L1, which is used to study fat cell differentiation. These cells are grown as fat cell precursors. These cells are maintained in Hams F12 with fetal calf serum and 15 mM glutamine. To stimulate them to enter the fat cell differentiation pathway, isomethylbutylxanine, dexamethasone and insulin are added using concentrations of 0.5 mM IBMX 16.7 nM insulin and 0.1 uM dexamethasone. In some cases 100 ng/ml IGF-I was added instead of insulin. Three days after the addition, differentiation into adipocytes is apparent and is detected by oil red O staining.
# To determine the effects of the peptide of SEQ ID NO:1, it was added at concentrations of 20 ng/ml, 200 ng/ml and 2 ug/ml. A detectable inhibition of adipocyte differentiation, as determined by a decrease in the number of oil red O positive cells, was detected using 20 ng/ml of peptide. The response was maximal at 200 ng/ml and not increased further by adding 2 mcg/ml.
# For oil red O staining, a stock solution of […] isoproponol is prepared. 60 ml of solution is mixed with 40 ml of water and allowed to sit at room temperature for an hour and then filtered. The media is aspirated from the adipocyte cultures and cells are fixed in 1% formaldehyde. Formaldehyde is aspirated and the oil red O solution is added in an amount necessary to cover the cells, which are then left at room temperature for one hour. The stain is then removed and the plates are washed with distilled water and dried. Typically 60-70% of the cells stain positive after 3 days.
Molecule,bone growth and calcification (mouse metatarsal bones),effect on bone growth (mouse metatarsal bones; metatarsals from normal mice),PTEN concentrations (PTEN),"concentration at which inhibition of adipocyte differentiation (decrease in oil red O positive cells) was detectable (3T3L1; 3T3L1, added at 20 ng/ml, 200 ng/ml and 2 ug/ml) [ng/mL]","concentration at which the response (inhibition of adipocyte differentiation) was maximal (3T3L1; 3T3L1, not increased further by 2 mcg/ml) [ng/mL]",oil red O positive cells at maximum effect of the peptide (3T3L1; typically 60-70% of the cells stain positive after 3 days) [%],"PTEN expression (PTEN; primary calvarial osteoblasts, overnight treatment)","concentrations found to inhibit adipocyte differentiation (3T3L1; 3T3L1, tested in parallel) [ng/mL]"
KHHLGLEEPKKLR (IGFBP-2 heparin binding domain-containing peptide sequence) [peptide of SEQ ID NO:1],stimulated bone growth and calcification,modest additional stimulatory effect,could suppress PTEN concentrations,20,200,< 20,,
B1,stimulated bone growth and calcification,,could suppress PTEN concentrations,,,,markedly suppressed PTEN expression,50 to 500

# Source: patent publication US9220746B2, “Compounds and methods for treating bone disorders and controlling weight” (The University of North Carolina at Chapel Hill, priority 2009, dated 2015)
